What was measured:
[1] = biological target: HER2 (ErbB2) (Homo sapiens, UniProt P04626); test: in vitro enzyme activity, HER2 (ErbB2); format: biochemical; settings: human ErbB2, [γ-33P]ATP, poly(Glu, Tyr) substrate
Protocol: (§1) The purpose of this assay is to detect the in vitro inhibitory activity of compounds on HER1 (ErbB1), HER2 (ErbB2), and HER4 (ErbB4). The enzymes used in this assay are human ErbB1, ErbB2 and ErbB4. Eurofins Pharma Discovery Service provided the method for activity detection.
(§2) Steps and Method of the Assay (96-Well Plate):
(§3) A buffer solution of the test compounds in a dilution of 5-fold (5 μL), polypeptide substrate poly(Glu, Tyr) (4:1) (2.5 μL), ErbB (4-20 ng, 2.5 μL), MnCl2 (50 mM, 1.25 μL), dH2O (3.75 μL), and [γ-^33P]ATP (10 μL) were added, and incubated at 30° C. for 10 minutes. The reaction was terminated by adding 3% phosphoric acid. 10 μL of the sample was taken and transferred to Filtermate A. The filter disc was washed 3 times with 75 mM phosphoric acid and once with methanol. The filter disc was transferred to a sealed plastic bag and the scintillation mixture (4 mL) was added. The intensity of the emitted photon was detected by a scintillation luminescence counter. The CPM (times/min) of the enzyme sample was compared with the CPM of the internal control sample. The level of photon intensity reflected the degree of the tyrosine kinase activity.

[2] = system: OE19 cells; test: CTG assay of OE19 cells; format: cell-based; settings: Homo sapiens, 72 hours of cell culture, Cell Titer Glo
Protocol: OE19 cells with saturation of 80%-90% were digested with trypsin, centrifuged, resuspended and counted. The concentration of cells was adjusted to […]. OE19 cells were added to a 96-well cell culture plate to 8000 OE19 cells per well. The cells were cultured in a cell incubator containing 5% CO2 at 37° C. overnight.
The stock solution of the test compounds was serially 3-fold diluted with DMSO to a total of 10 concentrations. Before the start of the assay, the serially diluted test compounds were further diluted to 10× compound solutions (the compound with a highest concentration contains 1% DMSO) with cell culture medium under sterile conditions. The prepared 10× compound solutions were added to the cell culture plate, and the 10 μL compound solution was added to each well. In this way, the final concentrations of staurosporine as the standard control and all the test compounds were obtained starting from […] as the initial concentration in a 3-fold serial dilution to get 10 test concentrations.
After 72 hours of cell culture, the 96-well cell culture plate was taken out. Cell Titer Glo reagent was added at […], mixed, centrifuged, and incubated at room temperature in the dark for 10 minutes. The cell plate was placed in Envision for reading.
The inhibition rate was calculated according to original data as follows:
Inhibition %=(ZPE−sample detection value)/(ZPE−HPE)×100%
The well containing 10 mM staurosporine on DAY3 (the first day of the assay is the day when compounds were added, and DAY3 is the day when reading is perfomed) was used as the HPE (100% inhibition control) well, and the well containing 0.1% DMSO on DAY3 was used as the ZPE (0% inhibition control) well. Each concentration of test compounds was tested in duplicate.
Non-linear regression analysis was performed using the processed data and GraphPad Prism 6 analysis software to obtain a dose-response curve, and the half-inhibitory concentration (IC50) of the test compounds on OE19 cells was calculated.

[3] = biological target: HER1 (ErbB1) (Homo sapiens, UniProt P00533); test: in vitro enzyme activity, HER1 (ErbB1); format: biochemical; settings: human ErbB1, [γ-33P]ATP, poly(Glu, Tyr) substrate
Protocol: as §1, §2, §3

[4] = system: subcutaneous xenograft tumor of human gastric cancer NCI-N87 cells; test: Assay Example 4: in vivo pharmacodynamics, NCI-N87 xenograft; parameters: species or system BALB/c nude mouse; settings: for Tumor volume (mm3) (Day 28): NCI-N87 xenograft, Mean + SEM; for T/C (%) / TGI (%): day 28
Protocol: Purpose of the assay: to evaluate the in vivo efficacy of test compounds disclosed herein on subcutaneous xenograft tumor of human gastric cancer NCI-N87 cells in a BALB/c nude mouse model.
Animals of the assay: female BALB/c nude mice, 6-8 weeks old, weighted 18-22 grams; supplier: Shanghai Ling Chang Biotechnology Co., Ltd.
Human gastric cancer NCI-N87 cells were cultured in monolayer in vitro. The culture conditions were RPMI-1640 medium plus 10% fetal bovine serum, 100 U/mL penicillin, 100 U/mL streptomycin and 2 mM glutamine, 37° C., 5% CO2. The passaging was performed by conventional digestion with trypsin-EDTA twice a week. When the cell saturation was 80%-90%, the cells were collected, counted and inoculated.
0.2 mL (10×10^6) of NCI-N87 cells (PBS+Matrigel, 1:1) were inoculated subcutaneously on the right back of each mouse. When the average tumor volume reached 158 mm^3, administration to each group was started.
The test compounds were formulated into a 0.04 mg/mL and 0.08 mg/mL clear solution in and the solvents of 10% NMP (N-methylpyrrolidone)+10% ethylene glycol stearate+80% water.
The assay index is to investigate whether tumor growth is inhibited, delayed or cured. Tumor diameter was measured twice a week with a vernier caliper. The calculation formula of tumor volume is: V=0.5a×b^2, wherein a and b represent the long and short diameters of tumor, respectively.
The antitumor efficacy of the compounds were evaluated by TGI (%) or tumor proliferation rate T/C (%). TGI (%) reflects the tumor growth inhibition rate. TGI (%) is calculated as follows: TGI (%)=[1−(average tumor volume at the end of administration for a certain treatment group−average tumor volume at the beginning of administration for this treatment group)/(average tumor volume at the end of treatment for a solvent control group−average tumor volume at the beginning of administration for this solvent control group)]×100%.
Tumor proliferation rate T/C (%): the calculation formula is as follows: T/C (%)=average tumor volume at the end of administration for a certain treatment group/average tumor volume at the end of treatment for the solvent control group×100%.
Statistical analysis included the mean and standard error (SEM) of tumor volume at each time point in each group (See Table 5-1 for specific data). […] The comparison between two groups was analyzed by T-test, and the comparison among three or more groups was analyzed by one-way ANOVA. […] All data analysis was carried out with SPSS 17.0. p<0.05 was considered a significant difference.

[5] = biological target: T1, CYP2C19 (Homo sapiens, UniProt P33261); test: inhibition of CYP enzyme activity in human liver microsome, CYP2C19; format: in vitro ADME
T1 construct: in the assay of CYP enzyme activity in human liver microsome; from tissue; host or cells: human liver microsome
Source text: The results of the compounds disclosed herein and the reference compound Poziotinib in the assay of CYP enzyme activity in human liver microsome were shown in the following table (Table 8).

T1 sequence (P33261 whole entry): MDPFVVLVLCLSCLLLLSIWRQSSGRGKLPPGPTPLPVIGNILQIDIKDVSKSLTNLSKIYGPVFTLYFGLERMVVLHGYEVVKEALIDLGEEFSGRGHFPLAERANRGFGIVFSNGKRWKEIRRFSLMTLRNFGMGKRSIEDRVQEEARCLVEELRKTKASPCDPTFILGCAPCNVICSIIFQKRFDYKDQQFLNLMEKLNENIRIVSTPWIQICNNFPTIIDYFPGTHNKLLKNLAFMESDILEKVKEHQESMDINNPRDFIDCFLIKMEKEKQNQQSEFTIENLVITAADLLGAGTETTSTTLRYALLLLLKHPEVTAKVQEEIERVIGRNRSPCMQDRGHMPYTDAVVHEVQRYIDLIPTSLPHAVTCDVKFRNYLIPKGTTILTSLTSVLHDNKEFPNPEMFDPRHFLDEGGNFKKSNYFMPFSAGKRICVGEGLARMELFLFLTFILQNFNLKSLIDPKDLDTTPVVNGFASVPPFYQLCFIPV
Sequence of HER2 (ErbB2) (P04626 23-1255): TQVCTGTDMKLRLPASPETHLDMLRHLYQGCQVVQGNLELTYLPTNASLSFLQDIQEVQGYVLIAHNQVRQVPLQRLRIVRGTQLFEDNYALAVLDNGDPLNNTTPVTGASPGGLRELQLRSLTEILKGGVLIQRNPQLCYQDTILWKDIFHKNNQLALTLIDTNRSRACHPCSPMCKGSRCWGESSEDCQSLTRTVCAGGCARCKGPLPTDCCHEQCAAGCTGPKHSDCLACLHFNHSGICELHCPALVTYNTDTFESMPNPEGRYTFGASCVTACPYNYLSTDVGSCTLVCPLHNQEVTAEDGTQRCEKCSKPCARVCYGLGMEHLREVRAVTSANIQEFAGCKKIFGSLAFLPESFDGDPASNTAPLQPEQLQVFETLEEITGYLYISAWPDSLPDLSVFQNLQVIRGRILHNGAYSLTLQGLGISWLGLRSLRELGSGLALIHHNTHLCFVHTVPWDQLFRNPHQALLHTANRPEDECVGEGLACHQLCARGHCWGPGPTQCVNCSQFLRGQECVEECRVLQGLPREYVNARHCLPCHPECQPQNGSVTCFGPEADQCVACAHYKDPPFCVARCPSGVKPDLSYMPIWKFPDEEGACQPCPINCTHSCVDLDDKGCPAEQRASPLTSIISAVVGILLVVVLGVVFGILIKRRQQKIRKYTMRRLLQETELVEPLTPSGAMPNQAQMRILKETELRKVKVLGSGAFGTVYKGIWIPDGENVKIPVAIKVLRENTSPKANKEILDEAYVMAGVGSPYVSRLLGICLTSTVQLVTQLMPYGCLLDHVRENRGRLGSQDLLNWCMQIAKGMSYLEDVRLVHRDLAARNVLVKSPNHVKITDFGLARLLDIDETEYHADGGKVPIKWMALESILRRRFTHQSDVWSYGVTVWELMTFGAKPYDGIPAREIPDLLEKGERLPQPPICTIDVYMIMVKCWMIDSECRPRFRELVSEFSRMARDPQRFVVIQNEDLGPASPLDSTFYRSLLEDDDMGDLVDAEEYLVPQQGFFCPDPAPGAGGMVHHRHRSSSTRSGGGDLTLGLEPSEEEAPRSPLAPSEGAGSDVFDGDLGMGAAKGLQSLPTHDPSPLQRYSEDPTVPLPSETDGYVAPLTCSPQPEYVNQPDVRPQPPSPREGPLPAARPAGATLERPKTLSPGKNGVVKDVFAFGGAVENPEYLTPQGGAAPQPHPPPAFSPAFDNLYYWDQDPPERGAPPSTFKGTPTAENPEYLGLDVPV
Sequence of HER1 (ErbB1) (P00533 25-1210): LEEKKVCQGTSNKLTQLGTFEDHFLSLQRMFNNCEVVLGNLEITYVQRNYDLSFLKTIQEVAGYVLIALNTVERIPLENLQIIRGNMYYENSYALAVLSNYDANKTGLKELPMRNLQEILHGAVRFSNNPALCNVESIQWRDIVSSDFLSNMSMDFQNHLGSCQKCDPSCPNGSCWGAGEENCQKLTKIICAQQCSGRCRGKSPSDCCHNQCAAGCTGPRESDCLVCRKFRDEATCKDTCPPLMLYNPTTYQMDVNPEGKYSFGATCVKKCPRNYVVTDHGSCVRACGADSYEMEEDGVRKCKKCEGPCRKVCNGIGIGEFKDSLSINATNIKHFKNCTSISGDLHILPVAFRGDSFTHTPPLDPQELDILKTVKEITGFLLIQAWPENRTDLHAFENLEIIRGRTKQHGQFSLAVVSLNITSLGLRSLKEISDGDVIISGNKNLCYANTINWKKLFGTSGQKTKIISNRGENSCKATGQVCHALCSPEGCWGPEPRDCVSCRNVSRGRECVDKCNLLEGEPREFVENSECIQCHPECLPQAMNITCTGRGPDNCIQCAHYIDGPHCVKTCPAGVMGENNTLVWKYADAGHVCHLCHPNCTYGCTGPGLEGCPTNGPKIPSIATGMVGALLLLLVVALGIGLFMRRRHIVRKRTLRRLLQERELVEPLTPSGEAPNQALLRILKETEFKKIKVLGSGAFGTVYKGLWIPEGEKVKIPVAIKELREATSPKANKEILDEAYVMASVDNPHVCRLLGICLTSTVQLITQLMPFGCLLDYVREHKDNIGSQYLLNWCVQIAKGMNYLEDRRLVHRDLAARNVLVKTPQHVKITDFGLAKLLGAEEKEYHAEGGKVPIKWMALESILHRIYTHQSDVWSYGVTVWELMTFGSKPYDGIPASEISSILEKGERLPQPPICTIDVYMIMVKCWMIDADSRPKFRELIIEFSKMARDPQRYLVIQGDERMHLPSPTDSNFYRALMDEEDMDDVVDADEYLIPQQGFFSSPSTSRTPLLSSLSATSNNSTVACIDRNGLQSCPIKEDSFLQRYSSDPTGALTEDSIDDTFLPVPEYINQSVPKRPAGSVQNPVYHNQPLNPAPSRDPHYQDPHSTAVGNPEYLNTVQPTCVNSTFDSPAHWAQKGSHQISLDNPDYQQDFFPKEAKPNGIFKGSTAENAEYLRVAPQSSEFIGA

SMILES | IC50 [1] | IC50 [2] | IC50 [3] | Tumor volume (mm3) (Day 28) ([4]; 0.4 mg/kg) | T/C (%) ([4]; 0.4 mg/kg) | TGI (%) ([4]; 0.4 mg/kg) | Tumor volume (mm3) (Day 28) ([4]; 0.8 mg/kg) | T/C (%) ([4]; 0.8 mg/kg) | TGI (%) ([4]; 0.8 mg/kg) | IC50 [5] | inhibition of CYP enzyme CYP2C19 [5]
C=CC(=O)N1[C@@H]2CC[C@H]1C[C@H](Oc1cc3c(Nc4ccc(Cl)c(Cl)c4F)ncnc3cc1OC)C2 [Example 8] | 5.5 nM | 0.48 nM | 6 nM | – | – | – | – | – | – | – | –
C=CC(=O)N1[C@@H]2CC[C@H]1C[C@H](Nc1cc3c(Nc4ccc(Cl)c(Cl)c4F)ncnc3cc1OC)C2 [Example 38] | 5 nM | 1.2 nM | 8 nM | 47 ± 13 mm3 | 7.51% | 123.72% | 15 ± 3 mm3 | 2.40% | 130.56% | 11000 nM | comparable to that of the reference compound Poziotinib
C=CC(=O)N1CCC(Oc2cc3c(Nc4ccc(Cl)c(Cl)c4F)ncnc3cc2OC)CC1 [Poziotinib, reference compound] | – | – | – | 84 ± 9 mm3 | 13.42% | 115.81% | 28 ± 8 mm3 | 4.47% | 127.78% | 12000 nM | –
